Test results: patent US20240139197A1, “INHIBITION OF KDM5A FOR PROMOTING ANTIGEN PRESENTATION, INCREASING CD8+ T CELL INFILTRATION AND BOOSTING ANTI-TUMOR IMMUNE RESPONSE” (The Wistar Institute of Anatomy and Biology, priority 2022, published 2024)

Key:
[1] = system: H2-K1 on ID8 cells; assay: cell surface MHC class I H2-K1 by FACS, ID8; format: cell-based, mouse; conditions: ID8, in response to IFNγ
From the text: FIG. 4A-FIG. 4M show KDM5A regulates antigen processing and presentation pathway. (FIG. 4A) Experimental strategy used to identify Kdm5a direct target genes. […] (FIG. 4B) CUT&RUN tracks of the newly identified Kdm5a target gene H2-K1 for Kdm5a and H3K4me3 in ID8 cells. (FIG. 4C) Expression of H2-K1 in doxycycline-inducible shKdm5a ID8 cells, Kdm5a inhibitor CPI-455, or Kdm5a knockout cells with or without IFNγ stimulation determined by RT-qPCR. (FIG. 4D) Cell surface expression of H2-K1 in control and Kdm5a knockout ID8 cells with or without IFNy stimulation was determined by FACS analysis. (FIG. 4E) Quantification of FIG. 4D. (FIG. 4F) Cell surface expression of H2-K1 in control and doxycyclineinducible Kdm5a-knockdown ID8 cells with or without IFNγ stimulation was determined by FACS analysis. (FIG. 4G) Quantification of FIG. 4F. (FIG. 4H) Cell surface expression of H2-K1 in D8 cells treated with vehicle or CPI-455 with or without IFNγ stimulation was determined by FACS analysis. (FIG. 4I) Quantification of FIG. 4H; An isotype matched IgG was used as a negative control for all the FACS analysis. […] Data represent mean±SEM of three biological repeats; P-value was calculated by using a two-tailed Student t test except in FIG. 4L by using Pearson r analysis test and FIG. 4M by using Fisher's exact test. […]

[2] = system: ID8 cells; assay: syngeneic ovarian cancer mouse model, CPI-455 treatment; format: in vivo; conditions: 50 mg/kg i.p., immuno-competent C57BL/6 mice bearing ID8
[3] = system: H3K4me3 in HGS2 cells; assay: immunoblot of H3K4me3, HGS2; format: cell-based, mouse; conditions: HGS2, 10 μM, 72 hours
Procedure: FIG. 6A-FIG. 6K show KDM5A inhibition promotes anti-tumor immune response in vivo. (FIG. 6A) Expression of H3K4me3, Kdm5a and a loading control b-actin in an independent second doxycycline-inducible shKdm5a ID8 clone treated with or without 2 μg/mL of doxycycline. (FIG. 6B) Same as FIG. 6A, but doxycycline-inducible shKdm5a ID8 cells were plated into 24 well plates and treated with 2 μg/mL of doxycycline the same day. Cells were incubated for 8 days. Relative cell viability was determined by colony formation assay. (FIG. 6C) Expression of H3K4me3, Kdm5a and a loading control b-actin in HGS2 cells treated 10 μM of CPI-455 or vehicle controls for 72 hours. […] Relative cell viability was determined by colony formation assay. (FIG. 6E-FIG. 6F) Bioluminescence signal was measured by IVIS system in indicated animal groups in the immunocompetent C57BL/6 mouse model once a week (FIG. 6E) and the survival of the indicated groups was determined by Kaplan-Meier survival curves (FIG. 6F) (n=5 mice per group). […] Ascites volumes produced from the indicated groups were quantified (FIG. 6H). n=5 mice per group. […] (FIG. 6J-FIG. 6K) Bioluminescence signal was measured by IVIS system in indicated animal groups in the immunocompromised NSG mouse model once a week (FIG. 6J), or examined for Kaplan-Meier survival curves for the indicated groups (FIG. 6K). […]

In the case of CPI-455, the “MHC class I presence on cell surface” value [1] is reported as “increased MHC class I presence on cell surface”, the ascites production [2] is reported as “significantly reduced ascites production” and the “survival of tumor bearing mice” value [2] is reported as “improved the survival”. The H3K4me3 levels [3] was “increase H3K4me3 levels”.
